# Tests used:
# [1] = tested on: human whole blood; experiment: Inhibition of IL-1β induced IL-6 production in whole blood; format: cell-based; conditions: 100 pM IL-1β
# Protocol: The inhibitory effect of IL-1R-I binding fusion proteins on IL-1β induced IL-6 production in whole blood from individual donors was measured.
# Blood from healthy donors was collected 1-3 hours prior to treatment with the IL-1R-I binding fusion proteins (SEQ ID NO:1648-1649). Proteins (IL-1R-I binding fusion proteins or anakinra) were diluted to starting concentration of 500 nM in serum free RPMI (ThermoFisher Scientific, RPMI 1640 Medium, GlutaMAX™ Supplement, Cat. No.: 61870010) and subsequently serially diluted 1:3 in a ten-step dilution series resulting in a concentration range of 500 nM to 25 pM. The IL-1R-I binding fusion polypetides or anakinra were tested in presence of a challenge dose of 100 pM IL-1β. The blood was incubated for 21-23 hours with proteins, followed by harvesting of plasma. Harvested plasma was diluted 2× and IL-6 content was analyzed by using a human IL-6 kit (V-PLEX Human IL-6 Kit Human interleukin-6, MSD) according to manufacturer's recommendations.
# IL-6 concentrations (pg/ml) were calculated using a standard curve (provided by the kit) and data was analyzed using XLfit and IC50 values were calculated from the concentration-response curves.
# [2] = tested on: Normal Human Dermal Fibroblasts (NHDF) cells; experiment: Inhibition of IL-1β induced IL-6 production in NHDF cells; format: cell-based; conditions: 3.4 pM IL-1β
# Protocol: The inhibitory effect of IL-1R-I binding fusion proteins on IL-1β induced IL-6 production in Normal Human Dermal Fibroblasts (NHDF) cells was monitored.
# Cells were seeded three days prior to treatment with proteins. […] Harvested medium was diluted 41× before IL-6 content was analyzed using a human IL-6 ELISA kit (R&D Systems) according to manufacturer's recommendations. Data was analyzed using XLfit and IC50 values were calculated from concentration-response curves.
substance,measurement,setting,value
Kineret: recombinant form of endogenous IL-1Ra denoted anakinra (Kineret),IL-1β induced IL-6 release in human whole blood,[1],reduced in a concentration-dependent manner
same,IL-1β induced IL-6 release from NHDF cells,[2],reduced in a concentration-dependent manner

# From patent publication US12116397B2, “IL-IR-I binding polypeptide” (Swedish Orphan Biovitrum AB (publ), priority 2017, dated 2024)
